The results in this text go back to patent US20260176266A1, “PIPERIDINOPYRIMIDINE DERIVATIVE, PREPARATION METHOD THEREFOR AND USE THEREOF IN MEDICINE” (TUOJIE BIOTECH (SHANGHAI) CO., LTD., priority 2022, published 2026).

One experiment deals with MCF7 breast cancer cells. Description: Inhibitory activity against tumor cells, CellTiter-Glo: MCF7. The experiment is classed as cell-based. Particulars: Homo sapiens, 168 h, MCF7, 7 days treatment. As to the method: (§1) MCF7 (ATCC #HTB-22) and T47D (ATCC #HTB-133) breast cancer cells and PANC-1 (ATCC #CRL-1469) pancreatic cancer cells were purchased from ATCC. MDA-MB-231 (Cobioer #CBP60382), HCC1806 (Cobioer #CBP60373), and MDA-MB-468 (Cobioer #CBP60387) breast cancer cells, HCT-116 (Cobioer #CBP60028) colorectal cancer cells, and OCI-AML-3 (Cobioer #CBP60817) and MV-4-11 (Cobioer #CBP60522) leukemia cells were purchased from Nanjing Cobioer Biosciences Co., Ltd.
(§2) OCI-AML-3 was cultured in RPMI 1640 medium with 20% FBS; HCC1806 and T47D were cultured in RPMI 1640 medium with 10% FBS; MCF7, MDA-MB-231, MDA-MB-468, and PANC-1 were cultured in DMEM medium with 10% FBS; MV-4-11 was cultured in IMDM medium with 20% FBS; HCT-116 was cultured in MC′5A medium with 10% FBS.
(§3) Palbociclib-resistant cells were constructed on MCF7 parent cells, designated MCF7 Palbo-R, and the culture conditions were consistent with those of the parent cells. All tumor cells were cultured in a cell incubator at 37° C. with 5% CO2. The cells were seeded at corresponding cell densities (600 cells/well for MDA-MB-231; 500 cells/well for MDA-MB-468, PANC-1, and HCT-116; 200 cells/well for MCF7 and HCC1806; 800 cells/well for MCF7 Palbo-R; 3000 cells/well for OCI-AML-3 and MV-4-11) in 384-well plates and cultured overnight in the incubator. On the second day, the cells were treated with compounds. The maximum compound concentration was 10 μM and was 3-fold diluted to obtain 9 concentrations, each tested in duplicate, and the final concentration of DMSO was 0.1%. The cells continued to be cultured in the incubator, with MDA-MB-231, PANC-1, MDA-MB-468, OCI-AML-3, and MV-4-11 being treated with drugs for 5 days and HCC1806, MCF7, MCF7 Palbo-R, and HCT116 being treated with drugs for 7 days. Cell viability was tested using the Celltiter Glo assay kit (Promega), and the testing method was consistent with the operational method provided by the kit. Readings were taken using an Envision multimode microplate reader. Data were processed using GraphPad Prism 8, and IC50 was calculated. […]

A further experiment deals with T47D breast cancer cells. Nature of the experiment: Inhibitory activity against tumor cells, CellTiter-Glo: T47D. Type of experiment: cell-based. The note with it: Homo sapiens. As to the method: as §1, §2
Palbociclib-resistant cells were constructed on MCF7 parent cells, designated MCF7 Palbo-R, and the culture conditions were consistent with those of the parent cells. All tumor cells were cultured in a cell incubator at 37° C. with 5% CO2. The cells were seeded at corresponding cell densities (600 cells/well for MDA-MB-231; 500 cells/well for MDA-MB-468, PANC-1, and HCT-116; 200 cells/well for MCF7 and HCC1806; 800 cells/well for MCF7 Palbo-R; 3000 cells/well for OCI-AML-3 and MV-4-11) in 384-well plates and cultured overnight in the incubator. On the second day, the cells were treated with compounds. The maximum compound concentration was 10 μM and was 3-fold diluted to obtain 9 concentrations, each tested in duplicate, and the final concentration of DMSO was 0.1%. The cells continued to be cultured in the incubator, with MDA-MB-231, PANC-1, MDA-MB-468, OCI-AML-3, and MV-4-11 being treated with drugs for 5 days and HCC1806, MCF7, MCF7 Palbo-R, and HCT116 being treated with drugs for 7 days. Cell viability was tested using the Celltiter Glo assay kit (Promega), and the testing method was consistent with the operational method provided by the kit. Readings were taken using an Envision multimode microplate reader. Data were processed using GraphPad Prism 8, and IC50 was calculated.
Y=Bottom+(Top−Bottom)/(1+10^((Log IC50−X)×HillSlope)). Calculation formula: • X: the logarithm of the compound concentration; Y: % inhibition.
Background: ATP-based viability assays read luminescence as a measure of living cells.

The test system of experiment [1] is MDA-MB-231 breast cancer cells. Description: Inhibitory activity against tumor cells, CellTiter-Glo: MDA-MB-231. The experiment is classed as cell-based. Particulars: Homo sapiens, 120 h, MDA-MB-231, 5 days treatment. The method, then: as §1, §2, §3
In another experiment the test system is OCI-AML-3 leukemia cells. Description: Inhibitory activity against tumor cells, CellTiter-Glo: OCI-AML-3. Type of experiment: cell-based. The note with it: Homo sapiens, 120 h, OCI-AML-3, 5 days treatment. The method, then:
as §1, §2, §3

Another experiment has as its system MV-4-11 leukemia cells. Description: Inhibitory activity against tumor cells, CellTiter-Glo: MV-4-11. The note with it: Homo sapiens, MV4-11, 120 h, MV-4-11, 5 days treatment. The experiment is classed as cell-based. The method, then:
as §1, §2, §3

A further experiment has as its target CDK1/CyclinB (Homo sapiens, UniProt P06493). Description: ADP-Glo kinase assay, CDK1. Type of experiment: biochemical. The note with it: 16.5 nM CDK1/CyclinB, 20 μM ATP (Km), Histone H1, 120 min; read-out: inhibitory activity (IC50, nM) CDK1. The method, then: (§4) The ADP-Glo kinase assay was used for testing the activity of CDKs. The compounds were diluted in 384-well plates using Echo. The starting concentration was 10 μM and was 3-fold diluted to obtain 10 concentration points, each tested in duplicate, and the final concentration of DMSO in the assay system was 1%. CDK solutions (the final concentrations were 16.5 nM CDK1/CyclinB, 1 nM CDK2/CyclinE1, 16.3 nM CDK4/CyclinD1, 11.5 nM CDK5/p25, 15.7 nM CDK6/CyclinD3, 80 nM CDK7/Cyclin H/MAT1, 15.3 nM CDK9/Cyclin T1, and 150 nM CDK12/CyclinK) prepared in assay buffer were added at 2.5 μL, and the enzymes and compounds were pre-incubated at room temperature for 10 min. ATP (the concentration was Km) & substrate solutions (20 μM ATP & 0.1 mg/mL Histone H1 Protein for CDK1/CyclinB, 15 μM ATP & 0.1 mg/mL Histone H1 Protein for CDK2/CyclinE1, 200 μM ATP & 0.2 mg/mL DYRKtide peptide for CDK4/CyclinD1, 10 μM ATP & 0.1 mg/mL Histone H1 Protein for CDK5/p25, 200 μM ATP & 0.1 mg/mL Histone H1 Protein for CDK6/CyclinD3, 70 μM ATP & 0.2 mg/mL MBP for CDK7/Cyclin H/MAT1, 60 μM ATP & 0.2 mg/mL PDKtide for CDK9/Cyclin T1, and 20 μM ATP & 80 μM pS7-CTD peptide for CDK12/CyclinK) prepared in assay buffer were added at 2.5 μL. […] Readings were taken using an Envision multimode microplate reader. Data were processed using GraphPad Prism 8, and IC50 was calculated. […]
On the technique in general: ADP-Glo first removes unused ATP, then detects ADP through luciferase.

The next experiment has as its target CDK2/CyclinE1 (Homo sapiens, UniProt P24941). Nature of the experiment: ADP-Glo kinase assay, CDK2. The experiment is classed as biochemical. Particulars: 1 nM CDK2/CyclinE1, 15 μM ATP (Km), Histone H1, 60 min; read-out: inhibitory activity (IC50, nM) CDK2. The method, then:
The ADP-Glo kinase assay was used for testing the activity of CDKs. The compounds were diluted in 384-well plates using Echo. The starting concentration was 10 μM and was 3-fold diluted to obtain 10 concentration points, each tested in duplicate, and the final concentration of DMSO in the assay system was 1%. CDK solutions (the final concentrations were 16.5 nM CDK1/CyclinB, 1 nM CDK2/CyclinE1, 16.3 nM CDK4/CyclinD1, 11.5 nM CDK5/p25, 15.7 nM CDK6/CyclinD3, 80 nM CDK7/Cyclin H/MAT1, 15.3 nM CDK9/Cyclin T1, and 150 nM CDK12/CyclinK) prepared in assay buffer were added at 2.5 μL, and the enzymes and compounds were pre-incubated at room temperature for 10 min. ATP (the concentration was Km) & substrate solutions (20 μM ATP & 0.1 mg/mL Histone H1 Protein for CDK1/CyclinB, 15 μM ATP & 0.1 mg/mL Histone H1 Protein for CDK2/CyclinE1, 200 μM ATP & 0.2 mg/mL DYRKtide peptide for CDK4/CyclinD1, 10 μM ATP & 0.1 mg/mL Histone H1 Protein for CDK5/p25, 200 μM ATP & 0.1 mg/mL Histone H1 Protein for CDK6/CyclinD3, 70 μM ATP & 0.2 mg/mL MBP for CDK7/Cyclin H/MAT1, 60 μM ATP & 0.2 mg/mL PDKtide for CDK9/Cyclin T1, and 20 μM ATP & 80 μM pS7-CTD peptide for CDK12/CyclinK) prepared in assay buffer were added at 2.5 μL. After thorough mixing, the plates were incubated at room temperature, with CDK1/4/9/12/13 incubated for 120 min and CDK2/5/6/7 incubated for 60 min. ADP-Glo reagents were added at 4 μL, and the plates were incubated at room temperature for 40 min. Kinase detection reagents were added at 8 μL, and the plates were incubated at room temperature for 40 min. Readings were taken using an Envision multimode microplate reader. Data were processed using GraphPad Prism 8, and IC50 was calculated.
[formula] • X: the logarithm of the compound concentration; Y: % inhibition.

For a further experiment, the target named is CDK4/CyclinD1 (Homo sapiens, UniProt P11802). Nature of the experiment: ADP-Glo kinase assay, CDK4. Type of experiment: biochemical. The note with it: 16.3 nM CDK4/CyclinD1, 200 μM ATP (Km), DYRKtide peptide, 120 min; read-out: inhibitory activity (IC50, nM) CDK4. The method, then:
as §4

The next experiment concerns the target CDK6/CyclinD3 (Homo sapiens, UniProt Q00534). Description: ADP-Glo kinase assay, CDK6. Type of experiment: biochemical. The note with it: 15.7 nM CDK6/CyclinD3, 200 μM ATP (Km), Histone H1, 60 min; read-out: inhibitory activity (IC50, nM) CDK 6. The method, then: as §4
A further experiment deals with CDK9/Cyclin T1 (Homo sapiens, UniProt P50750). Nature of the experiment: ADP-Glo kinase assay, CDK9. The experiment is classed as biochemical. Particulars: 15.3 nM CDK9/Cyclin T1, 60 μM ATP (Km), PDKtide, 120 min; read-out: inhibitory activity (IC50, nM) CDK9. The method, then: as §4

The structures appear in SMILES notation.

Sequence of CDK4/CyclinD1 (P11802 whole entry, species assumed): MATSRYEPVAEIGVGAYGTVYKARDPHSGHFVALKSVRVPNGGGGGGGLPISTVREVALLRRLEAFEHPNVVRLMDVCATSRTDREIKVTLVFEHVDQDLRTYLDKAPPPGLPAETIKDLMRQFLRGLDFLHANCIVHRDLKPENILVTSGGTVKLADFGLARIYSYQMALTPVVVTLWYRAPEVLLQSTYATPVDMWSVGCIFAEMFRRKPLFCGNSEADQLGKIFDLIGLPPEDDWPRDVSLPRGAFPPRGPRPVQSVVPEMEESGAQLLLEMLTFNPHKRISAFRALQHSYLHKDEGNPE
Sequence of CDK4/CyclinD1 (P24385 whole entry partner, species assumed): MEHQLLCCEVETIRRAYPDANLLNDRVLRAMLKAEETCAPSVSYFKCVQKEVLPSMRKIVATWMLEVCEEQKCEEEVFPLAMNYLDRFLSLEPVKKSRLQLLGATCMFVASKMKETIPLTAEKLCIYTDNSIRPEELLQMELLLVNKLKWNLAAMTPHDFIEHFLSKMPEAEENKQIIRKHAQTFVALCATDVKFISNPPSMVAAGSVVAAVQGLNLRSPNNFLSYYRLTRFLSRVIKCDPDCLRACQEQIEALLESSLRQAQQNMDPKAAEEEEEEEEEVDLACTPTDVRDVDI
Sequence of CDK6/CyclinD3 (Q00534 whole entry, species assumed): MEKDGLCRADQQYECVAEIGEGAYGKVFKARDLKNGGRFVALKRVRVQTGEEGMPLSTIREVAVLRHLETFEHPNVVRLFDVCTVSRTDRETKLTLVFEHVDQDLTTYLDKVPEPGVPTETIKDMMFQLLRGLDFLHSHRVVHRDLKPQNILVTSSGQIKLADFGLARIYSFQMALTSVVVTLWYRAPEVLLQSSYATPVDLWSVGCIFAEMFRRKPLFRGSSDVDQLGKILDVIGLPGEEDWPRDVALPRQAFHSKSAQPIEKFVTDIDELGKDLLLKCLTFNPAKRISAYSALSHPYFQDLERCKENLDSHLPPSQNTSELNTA
Sequence of CDK6/CyclinD3 (P30281 whole entry partner, species assumed): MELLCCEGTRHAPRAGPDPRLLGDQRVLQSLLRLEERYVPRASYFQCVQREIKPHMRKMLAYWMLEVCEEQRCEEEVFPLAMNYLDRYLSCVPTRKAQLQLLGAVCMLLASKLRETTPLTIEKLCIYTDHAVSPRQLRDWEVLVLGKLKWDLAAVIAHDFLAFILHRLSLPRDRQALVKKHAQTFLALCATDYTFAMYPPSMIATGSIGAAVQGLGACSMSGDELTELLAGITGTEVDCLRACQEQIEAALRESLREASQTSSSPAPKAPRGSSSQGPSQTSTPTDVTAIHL
Sequence of CDK1/CyclinB (P06493 whole entry, species assumed): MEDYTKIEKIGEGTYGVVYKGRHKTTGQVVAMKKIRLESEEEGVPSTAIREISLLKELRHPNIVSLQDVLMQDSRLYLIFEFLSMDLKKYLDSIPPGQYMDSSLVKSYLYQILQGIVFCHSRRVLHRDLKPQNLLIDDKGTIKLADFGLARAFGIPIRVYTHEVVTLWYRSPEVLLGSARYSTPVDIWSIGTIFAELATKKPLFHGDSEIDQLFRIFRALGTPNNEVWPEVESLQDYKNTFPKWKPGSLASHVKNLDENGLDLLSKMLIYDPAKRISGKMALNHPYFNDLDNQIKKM
Sequence of CDK1/CyclinB (P14635 whole entry partner, species assumed): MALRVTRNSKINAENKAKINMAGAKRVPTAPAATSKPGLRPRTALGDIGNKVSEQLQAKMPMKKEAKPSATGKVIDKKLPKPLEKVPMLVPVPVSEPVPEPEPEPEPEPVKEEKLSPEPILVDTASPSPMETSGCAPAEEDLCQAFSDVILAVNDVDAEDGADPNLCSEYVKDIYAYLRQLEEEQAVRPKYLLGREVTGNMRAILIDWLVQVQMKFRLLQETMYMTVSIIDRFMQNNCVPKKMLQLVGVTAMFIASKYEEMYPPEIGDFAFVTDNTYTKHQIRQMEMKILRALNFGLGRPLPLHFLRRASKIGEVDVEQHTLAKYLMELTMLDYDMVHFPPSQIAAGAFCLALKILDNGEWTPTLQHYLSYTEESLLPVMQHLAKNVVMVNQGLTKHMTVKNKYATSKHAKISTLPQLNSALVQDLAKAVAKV
Sequence of CDK9/Cyclin T1 (P50750 whole entry, species assumed): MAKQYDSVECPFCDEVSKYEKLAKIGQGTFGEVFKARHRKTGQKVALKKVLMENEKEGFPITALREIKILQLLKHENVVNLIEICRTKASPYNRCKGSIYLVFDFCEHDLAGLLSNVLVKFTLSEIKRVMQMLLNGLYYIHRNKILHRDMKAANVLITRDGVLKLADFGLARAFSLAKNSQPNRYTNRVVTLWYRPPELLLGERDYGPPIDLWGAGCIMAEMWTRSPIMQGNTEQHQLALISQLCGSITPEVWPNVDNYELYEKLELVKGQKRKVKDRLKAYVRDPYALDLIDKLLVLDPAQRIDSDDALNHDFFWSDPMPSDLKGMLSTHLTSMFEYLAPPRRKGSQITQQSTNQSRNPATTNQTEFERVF
Sequence of CDK9/Cyclin T1 (O60563 whole entry partner, species assumed): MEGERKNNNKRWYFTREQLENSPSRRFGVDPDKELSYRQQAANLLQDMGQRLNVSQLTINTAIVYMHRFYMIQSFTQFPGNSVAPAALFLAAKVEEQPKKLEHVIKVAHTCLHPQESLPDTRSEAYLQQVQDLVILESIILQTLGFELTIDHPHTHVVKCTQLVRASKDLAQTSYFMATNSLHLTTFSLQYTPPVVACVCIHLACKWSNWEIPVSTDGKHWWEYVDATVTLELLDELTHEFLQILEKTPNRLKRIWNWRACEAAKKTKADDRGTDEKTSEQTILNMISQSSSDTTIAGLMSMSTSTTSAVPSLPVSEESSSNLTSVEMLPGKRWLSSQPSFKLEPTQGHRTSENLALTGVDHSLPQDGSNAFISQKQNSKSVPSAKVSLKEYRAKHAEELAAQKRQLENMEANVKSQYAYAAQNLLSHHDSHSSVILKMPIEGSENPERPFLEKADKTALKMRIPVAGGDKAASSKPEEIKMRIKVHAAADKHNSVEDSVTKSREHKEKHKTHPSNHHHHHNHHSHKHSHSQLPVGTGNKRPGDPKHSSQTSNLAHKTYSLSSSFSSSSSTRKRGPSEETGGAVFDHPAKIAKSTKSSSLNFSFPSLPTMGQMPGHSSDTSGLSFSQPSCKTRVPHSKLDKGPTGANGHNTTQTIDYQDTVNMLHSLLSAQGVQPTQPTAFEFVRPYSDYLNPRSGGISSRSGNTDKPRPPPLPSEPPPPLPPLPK

What is called IC50 is the concentration at which inhibition is half-maximal. Consider `C[C@@H]1Cc2cnc(NCc3ccn(C)n3)nc2CN1C(=O)N[C@H](CN(C)C)c1ccccc1` [Example 2, (R)—N—((S)-2-(Dimethylamino)-1-phenylethyl)-6-methyl-2-(((1-methyl-TH-pyrazol-3-yl)methyl)amino)-5,8-dihydropyrido[3,4-d]pyrimidine-7(6H)-carboxamide], for which the IC50 is 14.6 nM in the experiment with MCF7 breast cancer cells; 31 nM in the experiment on T47D breast cancer cells; 25.4 nM in [1]; 33.2 nM with OCI-AML-3 leukemia cells; 18.2 nM with MV-4-11 leukemia cells; above 10000 nM at CDK1/CyclinB. The IC50 on CDK2/CyclinE1 is 2330 nM; on CDK4/CyclinD1 it was above 10000 nM; on CDK6/CyclinD3, above 10000 nM; at CDK9/Cyclin T1, 1580 nM.

In the case of `C[C@H](Nc1ncc2c(n1)CN(C(=O)N[C@H](CN(C)C)c1ccccc1)[C@H](C)C2)c1ccccn1` [Example 6, (R)—N—((S)-2-(Dimethylamino)-1-phenylethyl)-6-methyl-2-(((S)-1-(pyridin-2-yl)ethyl)amino)-5,8-dihydropyrido[3,4-d]pyrimidine-7(6H)-carboxamide], the IC50 with MCF7 breast cancer cells is 11.8 nM; with T47D breast cancer cells, 22.2 nM; in experiment [1], 23.2 nM; in the experiment with OCI-AML-3 leukemia cells, 33.4 nM; in the experiment with MV-4-11 leukemia cells it was 19.1 nM; at CDK1/CyclinB, above 10000 nM. Further, the IC50 on CDK2/CyclinE1 is 1900 nM; on CDK4/CyclinD1 it was above 10000 nM; on CDK6/CyclinD3, above 10000 nM; at CDK9/Cyclin T1 it was 4270 nM.
